Laboratory results: patent US10376520B2, “Methods for the treatment of cardiovascular disorders” (Galapagos NV, priority 2015, dated 2019)

Tested on: Subjects With Active Crohn's Disease
Test: LDL determination, Study 5 (Crohn's disease)
Assay type: in vivo, human
Conditions: for [LDL] Mean CFB - 10 weeks results / [LDL] Median CFB - 10 weeks results / [LDL] Mean CFB: 200 mg q.d.; for [LDL] Mean CFB: Study 5 10 weeks results
From the text: Double-Blind, Randomized, Placebo-Controlled, Multi-Centre Study to Investigate the Efficacy and Safety of Compound 1 in Subjects With Active Crohn's Disease With Evidence of Mucosal Ulceration.
This is a double-blind, randomized, placebo-controlled, multi-centre Phase 2 study to investigate the efficacy and safety of Compound 1 administered once daily for the treatment of active CD with evidence of mucosal ulceration. The pharmacokinetics (including a PK substudy) and pharmacodynamics of Compound 1 and metabolite in CD will also be characterised.
A total of 180 eligible subjects will be randomized to receive Compound 1 or placebo in addition to their stable background treatment (eg, corticosteroids, aminosalicylates, or CD-related antibiotics). The study will consist of 2 parts, with total treatment duration of 20 weeks. Randomization in Part 1 will be stratified according the subject's previous anti-TNF exposure/response, CRP level at Screening, and oral corticosteroid use at visit Day −1.
After the first 10 weeks of treatment in Part 1, patients will be re-randomized for Part 2 as shown in the diagram below and will be stratified according to the subject's clinical response, previous anti-TNF exposure/response, and oral corticosteroid use at visit Day −1.
The following assays were conducted at Eurofins Global Central Laboratory, Bergschot 71, 4817 PA Breda, The Netherlands, and at Quest Diagnostics, Clinical Trials, Quest House, 125-135 Staines Road, Hounslow, Middlesex, TW3 3JB, United Kingdom. The assays for Study 5 were performed at BARC Europe, 3B, Industrie Park, Zwijnaarde, B-9052 Ghent, Belgium.
The determination of [LDL]-cholesterol is made using an automated method taking advantage of the selective micellary solubilization of [LDL]-cholesterol by a nonionic detergent and the interaction of a sugar compound and lipoproteins (VLDL and chylomicrons).
When a detergent is included in the enzymatic method for cholesterol determination (cholesterol esterase, cholesterol oxidase coupling reaction), the relative reactivities of cholesterol in the lipoprotein fractions increase in this order: [HDL]<chylomicrons <VLDL <[LDL]. In the presence of Mg^2+, a sugar compound markedly reduces the enzymatic reaction of the cholesterol measurement in VLDL and chylomicrons. The combination of a sugar compound with detergent enables the selective determination of [LDL]-cholesterol in serum. (Friedewald et al., 1972; Rifai et al., 1992)
Homogeneous enzymatic colorimetric assay.
In the presence of peroxidase, the hydrogen peroxide generated reacts with 4-aminoantipyrine and Sodium N-(2-hydroxy-3-sulfopropyl)-3,5-dimethoxyaniline (HSDA) to form a purple-blue dye.
The color intensity of this dye is directly proportional to the cholesterol concentration and is measured photometrically.
Human serum and plasma samples [LDL] determination was done on a Roche/Hitachi Cobas c 701/702 system which automatically calculate the analyte concentration of each sample. Samples containing precipitates are centrifuged before performing the assay.

[1] = 200 mg q.d. week 0 to 10, to 100 mg q.d. week 10 to 20, week 16
[2] = 200 mg q.d. week 0 to 10, to 100 mg q.d. week 10 to 20, week 20
[3] = 200 mg q.d. week 0 to 10, to placebo week 10 to 20, week 2
[4] = 200 mg q.d. week 0 to 10, to placebo week 10 to 20, week 4
[5] = 200 mg q.d. week 0 to 10, to placebo week 10 to 20, week 6
[6] = 200 mg q.d. week 0 to 10, to placebo week 10 to 20, week 10
[7] = 200 mg q.d. week 0 to 10, to placebo week 10 to 20, week 12
[8] = 200 mg q.d. week 0 to 10, to placebo week 10 to 20, week 16
[9] = 200 mg q.d. week 0 to 10, to placebo week 10 to 20, week 20
[10] = continued 200 mg q.d. (N = 77), week 2
[11] = continued 200 mg q.d. (N = 77), week 4
[12] = continued 200 mg q.d. (N = 77), week 6
[13] = continued 200 mg q.d. (N = 77), week 10
[14] = continued 200 mg q.d. (N = 77), week 12
[15] = continued 200 mg q.d. (N = 77), week 16
[16] = continued 200 mg q.d. (N = 77), week 20
[17] = placebo week 0 to 10, then 100 mg q.d. (N = 22), week 12
[18] = placebo week 0 to 10, then 100 mg q.d. (N = 22), week 16
[19] = placebo week 0 to 10, then 100 mg q.d. (N = 22), week 20
[20] = placebo week 0 to 10, to 100 mg q.d. week 10 to 20, week 12
[21] = placebo week 0 to 10, to 100 mg q.d. week 10 to 20, week 16
[22] = placebo week 0 to 10, to 100 mg q.d. week 10 to 20, week 20

O=C(Nc1nc2cccc(-c3ccc(CN4CCS(=O)(=O)CC4)cc3)n2n1)C1CC1 [Compound 1, cyclopropanecarboxylic acid {5-[4-(1,1-dioxo-thiomorpholin-4-ylmethyl)-phenyl]-[1,2,4]triazolo[1,5-a]pyridin-2yl}-amide]
[LDL] Mean CFB - 20 weeks results [1]: 2.18%
[LDL] Median CFB - 20 weeks results [1]: −1.36%
[LDL] Mean CFB - 20 weeks results [2]: 2.73%
[LDL] Median CFB - 20 weeks results [2]: 1.65%
[LDL] Mean CFB - 20 weeks results [3]: 2.69%
[LDL] Median CFB - 20 weeks results [3]: 0.71%
[LDL] Mean CFB - 20 weeks results [4]: 1.85%
[LDL] Median CFB - 20 weeks results [4]: 2.44%
[LDL] Mean CFB - 20 weeks results [5]: 3.72%
[LDL] Median CFB - 20 weeks results [5]: 3.51%
[LDL] Mean CFB - 20 weeks results [6]: 4.43%
[LDL] Median CFB - 20 weeks results [6]: 1.84%
[LDL] Mean CFB - 20 weeks results [7]: 4.55%
[LDL] Median CFB - 20 weeks results [7]: 6.33%
[LDL] Mean CFB - 20 weeks results [8]: 10.32%
[LDL] Median CFB - 20 weeks results [8]: 6.34%
[LDL] Mean CFB - 20 weeks results [9]: 6.12%
[LDL] Median CFB - 20 weeks results [9]: 5.24%
[LDL] Mean CFB - 10 weeks results (week 2): 2.833%
[LDL] Median CFB - 10 weeks results (week 2): −1.469%
[LDL] Mean CFB - 10 weeks results (week 4): 1.997%
[LDL] Median CFB - 10 weeks results (week 4): −1.986%
[LDL] Mean CFB - 10 weeks results (week 6): 1.743%
[LDL] Median CFB - 10 weeks results (week 6): 0.992%
[LDL] Mean CFB - 10 weeks results (week 10): 10.126%
[LDL] Median CFB - 10 weeks results (week 10): 6.299%
[LDL] Mean CFB (week 2): 0.025 mmol/L
[LDL] Mean CFB (week 4): -0.030 mmol/L
[LDL] Mean CFB (week 6): -0.012 mmol/L
[LDL] Mean CFB (week 10): 0.150 mmol/L
[LDL] Mean CFB - 20 weeks results [10]: 0.04 mmol/L
[LDL] Median CFB - 10 weeks results 20 weeks results [10]: -0.05 mmol/L
[LDL] Mean CFB - 20 weeks results [11]: -0.05 mmol/L
[LDL] Median CFB - 10 weeks results 20 weeks results [11]: -0.05 mmol/L
[LDL] Mean CFB - 20 weeks results [12]: -0.05 mmol/L
[LDL] Median CFB - 10 weeks results 20 weeks results [12]: -0.02 mmol/L
[LDL] Mean CFB - 20 weeks results [13]: 0.20 mmol/L
[LDL] Median CFB - 10 weeks results 20 weeks results [13]: 0.18 mmol/L
[LDL] Mean CFB - 20 weeks results [14]: 0.14 mmol/L
[LDL] Median CFB - 10 weeks results 20 weeks results [14]: 0.15 mmol/L
[LDL] Mean CFB - 20 weeks results [15]: 0.21 mmol/L
[LDL] Median CFB - 10 weeks results 20 weeks results [15]: 0.19 mmol/L
[LDL] Mean CFB - 20 weeks results [16]: 0.22 mmol/L
[LDL] Median CFB - 10 weeks results 20 weeks results [16]: 0.18 mmol/L
[LDL] Mean CFB - 20 weeks results [17]: 0.09 mmol/L
[LDL] Median CFB - 10 weeks results 20 weeks results [17]: 0.07 mmol/L
[LDL] Mean CFB - 20 weeks results [18]: 0.05 mmol/L
[LDL] Median CFB - 10 weeks results 20 weeks results [18]: -0.06 mmol/L
[LDL] Mean CFB - 20 weeks results [19]: 0.06 mmol/L
[LDL] Median CFB - 10 weeks results 20 weeks results [19]: 0.03 mmol/L
[LDL] Mean CFB - 20 weeks results [20]: 4.07%
[LDL] Median CFB - 20 weeks results [20]: 2.14%
[LDL] Mean CFB - 20 weeks results [21]: 5.28%
[LDL] Median CFB - 20 weeks results [21]: −2.00%
[LDL] Mean CFB - 20 weeks results [22]: 7.29%
[LDL] Median CFB - 20 weeks results [22]: 1.90%
